From paper PMC10382584, “Macrocyclization of linear molecules by deep learning to facilitate macrocyclic drug candidates discovery” (Nature Communications, 2023)

How the values were obtained:
Assay in all cases: biochemical
Set-up in all cases: DiscoveRx KINOMEscan competition binding, percent of DMSO control signal at 100 nM
Conditions in all cases: read-out: Fig. 4a / Percent Control / Compound 1; percent of DMSO control, competition binding
[1] = target: T1, ABL1(M351T)-phosphorylated (Homo sapiens, UniProt P00519, M351T)
T1 construct: phosphorylated

[2] = target: T2, ABL1(Q252H)-nonphosphorylated (Homo sapiens, UniProt P00519, Q252H)
T2 construct: nonphosphorylated

CASK = CASK (Homo sapiens, UniProt O14936)
CDK11 = target: T3, CDK11 (Homo sapiens, UniProt Q9BWU1)
T3 construct: gene CDK19

CSF1R = CSF1R (Homo sapiens, UniProt P07333)
CSNK2A2 = CSNK2A2 (Homo sapiens, UniProt P19784)
FGFR1 = FGFR1 (Homo sapiens, UniProt P11362)
FLT1 = FLT1 (Homo sapiens, UniProt P17948)
FLT3(ITD,D835V) = FLT3(ITD,D835V) (Homo sapiens, UniProt P36888, D835V/ITD)
JNK1 = target: T4, JNK1 (Homo sapiens, UniProt P45983)
T4 construct: gene MAPK8

KIT = KIT (Homo sapiens, UniProt P10721)
MLK3 = target: T5, MLK3 (Homo sapiens, UniProt Q16584)
T5 construct: gene MAP3K11

MUSK = MUSK (Homo sapiens, UniProt O15146)
PAK1 = PAK1 (Homo sapiens, UniProt Q13153)
PAK4 = PAK4 (Homo sapiens, UniProt O96013)
PIK3C2B = PIK3C2B (Homo sapiens, UniProt O00750)
PIP5K1A = PIP5K1A (Homo sapiens, UniProt Q99755)
PKAC-alpha = target: T6, PKAC-alpha (Homo sapiens, UniProt P17612)
T6 construct: gene PRKACA

PKN1 = PKN1 (Homo sapiens, UniProt Q16512)
PRKD3 = PRKD3 (Homo sapiens, UniProt O94806)
RIPK2 = RIPK2 (Homo sapiens, UniProt O43353)
RIPK5 = target: T7, RIPK5 (Homo sapiens, UniProt Q6XUX3)
T7 construct: gene DSTYK

ROCK2 = ROCK2 (Homo sapiens, UniProt O75116)
SRPK1 = SRPK1 (Homo sapiens, UniProt Q96SB4)
VRK2 = VRK2 (Homo sapiens, UniProt Q86Y07)
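Further: KINOMEscan kinase panel binding assay, signal normalized between DMSO as 100% and a positive control compound as 0%.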

Sequence of VRK2 (Q86Y07 whole entry): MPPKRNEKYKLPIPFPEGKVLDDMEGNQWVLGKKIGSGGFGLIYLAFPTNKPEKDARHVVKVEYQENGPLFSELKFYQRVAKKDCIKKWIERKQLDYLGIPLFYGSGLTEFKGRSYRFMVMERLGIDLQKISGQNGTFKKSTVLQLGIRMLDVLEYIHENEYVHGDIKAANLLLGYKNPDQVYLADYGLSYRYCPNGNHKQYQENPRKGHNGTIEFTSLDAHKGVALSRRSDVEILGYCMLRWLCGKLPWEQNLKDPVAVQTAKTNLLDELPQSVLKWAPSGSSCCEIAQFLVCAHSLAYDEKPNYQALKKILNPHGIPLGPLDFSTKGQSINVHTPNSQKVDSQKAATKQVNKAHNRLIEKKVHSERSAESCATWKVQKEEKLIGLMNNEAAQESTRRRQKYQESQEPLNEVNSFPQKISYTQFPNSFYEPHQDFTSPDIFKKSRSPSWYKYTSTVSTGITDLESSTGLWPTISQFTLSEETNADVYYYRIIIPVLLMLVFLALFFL
T5 sequence (Q16584 whole entry): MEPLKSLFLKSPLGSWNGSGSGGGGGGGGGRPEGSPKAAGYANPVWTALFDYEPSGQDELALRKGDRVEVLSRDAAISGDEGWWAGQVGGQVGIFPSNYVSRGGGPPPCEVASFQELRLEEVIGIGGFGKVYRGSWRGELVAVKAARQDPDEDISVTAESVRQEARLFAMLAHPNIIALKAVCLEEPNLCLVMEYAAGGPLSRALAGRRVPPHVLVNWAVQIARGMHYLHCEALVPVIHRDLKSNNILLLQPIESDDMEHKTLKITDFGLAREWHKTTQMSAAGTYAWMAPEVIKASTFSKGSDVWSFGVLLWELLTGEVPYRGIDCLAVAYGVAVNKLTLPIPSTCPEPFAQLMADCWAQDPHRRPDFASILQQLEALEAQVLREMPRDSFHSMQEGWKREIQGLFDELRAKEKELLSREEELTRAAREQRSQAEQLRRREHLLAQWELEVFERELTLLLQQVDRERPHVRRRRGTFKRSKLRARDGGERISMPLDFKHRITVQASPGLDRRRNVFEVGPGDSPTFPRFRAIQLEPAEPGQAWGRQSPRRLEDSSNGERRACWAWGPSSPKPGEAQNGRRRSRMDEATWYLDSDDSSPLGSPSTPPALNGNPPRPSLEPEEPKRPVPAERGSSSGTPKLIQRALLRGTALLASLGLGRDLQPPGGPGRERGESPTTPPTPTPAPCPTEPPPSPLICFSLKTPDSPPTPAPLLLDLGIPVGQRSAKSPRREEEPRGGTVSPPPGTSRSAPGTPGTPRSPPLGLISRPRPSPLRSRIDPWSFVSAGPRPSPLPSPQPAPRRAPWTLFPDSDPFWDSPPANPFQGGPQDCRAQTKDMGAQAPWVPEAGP
Sequence of MUSK (O15146 whole entry): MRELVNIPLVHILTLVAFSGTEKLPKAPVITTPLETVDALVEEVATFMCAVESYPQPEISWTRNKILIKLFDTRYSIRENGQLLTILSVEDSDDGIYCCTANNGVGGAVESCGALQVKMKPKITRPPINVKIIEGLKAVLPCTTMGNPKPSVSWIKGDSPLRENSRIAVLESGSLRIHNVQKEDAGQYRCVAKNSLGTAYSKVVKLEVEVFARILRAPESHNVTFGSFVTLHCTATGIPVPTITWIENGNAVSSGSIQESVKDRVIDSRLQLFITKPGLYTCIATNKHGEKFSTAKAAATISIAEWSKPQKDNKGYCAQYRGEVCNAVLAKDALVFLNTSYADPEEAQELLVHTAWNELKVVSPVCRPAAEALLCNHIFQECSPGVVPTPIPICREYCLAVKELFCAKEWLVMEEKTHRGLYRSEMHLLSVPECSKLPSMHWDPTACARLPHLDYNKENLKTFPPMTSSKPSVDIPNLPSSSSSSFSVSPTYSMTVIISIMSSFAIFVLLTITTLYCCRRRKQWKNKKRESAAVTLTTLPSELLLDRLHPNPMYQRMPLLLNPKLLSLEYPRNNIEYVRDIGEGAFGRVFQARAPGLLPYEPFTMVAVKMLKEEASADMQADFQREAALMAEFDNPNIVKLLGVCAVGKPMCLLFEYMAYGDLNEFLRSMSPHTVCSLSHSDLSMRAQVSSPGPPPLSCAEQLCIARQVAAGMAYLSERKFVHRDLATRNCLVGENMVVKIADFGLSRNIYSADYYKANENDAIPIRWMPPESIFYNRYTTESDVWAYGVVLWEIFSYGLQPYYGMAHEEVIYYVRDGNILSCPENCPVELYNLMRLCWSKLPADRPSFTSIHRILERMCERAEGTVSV
Sequence of CSNK2A2 (P19784 whole entry): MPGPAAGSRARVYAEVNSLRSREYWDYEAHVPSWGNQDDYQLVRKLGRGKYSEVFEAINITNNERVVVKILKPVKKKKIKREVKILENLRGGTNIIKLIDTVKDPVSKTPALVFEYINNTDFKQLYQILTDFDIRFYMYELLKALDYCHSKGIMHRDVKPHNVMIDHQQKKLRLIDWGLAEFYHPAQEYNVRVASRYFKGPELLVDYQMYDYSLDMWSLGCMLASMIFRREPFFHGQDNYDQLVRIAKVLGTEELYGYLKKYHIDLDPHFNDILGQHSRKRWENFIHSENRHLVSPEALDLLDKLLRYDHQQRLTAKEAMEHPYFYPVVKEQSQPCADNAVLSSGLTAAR
Sequence of PAK4 (O96013 whole entry): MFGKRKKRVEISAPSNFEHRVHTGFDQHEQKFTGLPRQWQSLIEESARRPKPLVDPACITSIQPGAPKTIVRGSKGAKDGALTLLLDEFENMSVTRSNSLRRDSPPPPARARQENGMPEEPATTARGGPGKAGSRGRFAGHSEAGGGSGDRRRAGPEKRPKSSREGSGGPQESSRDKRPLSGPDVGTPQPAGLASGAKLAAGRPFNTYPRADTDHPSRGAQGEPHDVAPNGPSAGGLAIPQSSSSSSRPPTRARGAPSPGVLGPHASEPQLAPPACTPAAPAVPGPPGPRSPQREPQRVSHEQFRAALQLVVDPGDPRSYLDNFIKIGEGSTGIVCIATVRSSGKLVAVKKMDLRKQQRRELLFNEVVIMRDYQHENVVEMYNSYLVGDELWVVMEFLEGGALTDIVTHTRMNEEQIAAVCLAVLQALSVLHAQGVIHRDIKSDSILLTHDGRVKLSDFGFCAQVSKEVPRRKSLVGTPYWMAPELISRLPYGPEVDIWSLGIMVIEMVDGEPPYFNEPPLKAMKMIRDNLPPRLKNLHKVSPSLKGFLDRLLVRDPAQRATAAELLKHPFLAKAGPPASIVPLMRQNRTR
T7 sequence (Q6XUX3 whole entry): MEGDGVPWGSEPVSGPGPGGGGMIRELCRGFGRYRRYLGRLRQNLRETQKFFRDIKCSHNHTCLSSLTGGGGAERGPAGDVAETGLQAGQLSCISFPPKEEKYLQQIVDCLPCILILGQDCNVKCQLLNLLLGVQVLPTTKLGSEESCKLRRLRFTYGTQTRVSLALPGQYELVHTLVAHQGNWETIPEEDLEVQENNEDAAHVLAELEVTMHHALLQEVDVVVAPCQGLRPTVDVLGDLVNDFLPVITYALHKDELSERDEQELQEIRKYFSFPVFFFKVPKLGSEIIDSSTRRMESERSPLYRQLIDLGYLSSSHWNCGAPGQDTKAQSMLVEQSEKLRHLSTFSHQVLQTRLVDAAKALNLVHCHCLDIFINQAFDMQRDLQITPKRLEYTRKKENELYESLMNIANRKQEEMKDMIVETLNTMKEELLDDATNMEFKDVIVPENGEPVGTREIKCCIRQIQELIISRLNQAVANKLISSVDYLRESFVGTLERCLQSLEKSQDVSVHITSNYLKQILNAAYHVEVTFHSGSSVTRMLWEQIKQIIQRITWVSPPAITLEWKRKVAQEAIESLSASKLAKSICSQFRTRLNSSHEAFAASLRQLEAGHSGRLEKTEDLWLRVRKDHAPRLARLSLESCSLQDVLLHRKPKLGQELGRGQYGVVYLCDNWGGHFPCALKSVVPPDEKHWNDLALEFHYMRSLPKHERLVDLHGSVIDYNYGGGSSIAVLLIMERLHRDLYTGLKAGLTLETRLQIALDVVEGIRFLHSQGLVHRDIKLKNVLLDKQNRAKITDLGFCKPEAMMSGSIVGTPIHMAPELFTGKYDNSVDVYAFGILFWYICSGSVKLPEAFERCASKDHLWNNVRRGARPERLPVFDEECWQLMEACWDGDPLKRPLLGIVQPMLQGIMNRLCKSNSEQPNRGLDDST
Sequence of PAK1 (Q13153 whole entry): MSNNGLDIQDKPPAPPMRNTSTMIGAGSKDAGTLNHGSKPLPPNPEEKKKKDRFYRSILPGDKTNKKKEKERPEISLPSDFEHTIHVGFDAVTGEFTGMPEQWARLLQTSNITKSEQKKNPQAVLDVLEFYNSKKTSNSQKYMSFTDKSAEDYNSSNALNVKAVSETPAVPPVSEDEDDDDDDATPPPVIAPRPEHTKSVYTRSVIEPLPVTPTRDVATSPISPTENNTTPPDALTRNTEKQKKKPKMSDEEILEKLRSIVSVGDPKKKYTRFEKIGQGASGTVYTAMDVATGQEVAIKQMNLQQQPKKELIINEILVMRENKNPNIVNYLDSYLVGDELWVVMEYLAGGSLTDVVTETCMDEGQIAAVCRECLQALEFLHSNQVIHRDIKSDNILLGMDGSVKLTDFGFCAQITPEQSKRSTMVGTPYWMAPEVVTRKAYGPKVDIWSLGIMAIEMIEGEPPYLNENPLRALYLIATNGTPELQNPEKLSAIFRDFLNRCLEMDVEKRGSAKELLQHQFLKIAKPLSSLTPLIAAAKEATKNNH

With `Cc1cnc2nc1Nc1cccc(c1)COCc1cc(ccc1OCCN1CCCC1)N2` [Compound 1] the remaining binding at 0.1 µM [1] was 63%, the remaining binding at 0.1 µM [2] was 51% and the remaining binding at 0.1 µM (CASK) was 73%. The remaining binding at 0.1 µM (CDK11) was 96%, the remaining binding at 0.1 µM (CSF1R) was 62% and the remaining binding at 0.1 µM (CSNK2A2) was 62%. The remaining binding at 0.1 µM (FGFR1) was 89%, the remaining binding at 0.1 µM (FLT1) was 100% and the remaining binding at 0.1 µM (FLT3(ITD,D835V)) was 2.1%. The remaining binding at 0.1 µM (JNK1) was 50%, the remaining binding at 0.1 µM (KIT) was 57% and the remaining binding at 0.1 µM (MLK3) was 94%. For the same compound, the remaining binding at 0.1 µM (MUSK) was 90%, the remaining binding at 0.1 µM (PAK1) was 100% and the remaining binding at 0.1 µM (PAK4) was 100%. For the same compound, the remaining binding at 0.1 µM (PIK3C2B) was 97%, the remaining binding at 0.1 µM (PIP5K1A) was 49% and the remaining binding at 0.1 µM (PKAC-alpha) was 99%. It also gave a remaining binding at 0.1 µM (PKN1) of 93%, a remaining binding at 0.1 µM (PRKD3) of 100% and a remaining binding at 0.1 µM (RIPK2) of 99%. For the same compound, the remaining binding at 0.1 µM (RIPK5) was 93%, the remaining binding at 0.1 µM (ROCK2) was 83% and the remaining binding at 0.1 µM (SRPK1) was 97%. For the same compound, the remaining binding at 0.1 µM (VRK2) was 97%.
